In patent US6613756B2 (Wisconsin Alumni Research Foundation, priority 2000, dated 2003):
Where a name gives a salt, the structure may show the parent alone.

Legend:
[1] = tested on: collagenase; settings: cited from earlier work
[2] = tested on: MOG-specific T-cell response; experiment: MOG-specific T-cell response of draining lymph node cells from treated rats; type: cell-based, rat; settings: high-dose MOG; minocycline day 1 to 10; 10 d.p.i.
Protocol: Draining lymph nodes and spleens were removed 10 days post-immunization (d.p.i.) and proliferation assays performed in flat-bottomed 96-well tissue culture plates in a total volume of 200 μl using either 5×10^5 lymph node or spleen cells (Raine, C. S., et al., supra, 1999). Antigen specific proliferation was assessed by the incorporation of ^3H-thymidine (10 μCi/well) during the final 18 hours of a 72 hour culture period using a Packard Matrix 96 Direct Beta counter.

[3] = tested on: naive DA rats; experiment: Minocycline treatment of naive, non-immunized animals; type: in vivo, rat
Source text: In the high-dose MOG immunization paradigm rats were separated into two groups: EAE^pbs-phosphate-buffered saline (PBS)-treated rats (n=5) from day 1 post-immunization and EAE^tr-minocycline-treated rats (n=6) from day 1 post-immunization.
(§1) Matched unimmunized, naive groups were also included: N^pbs-PBS-treated animals (n=10), N^tr1-minocycline-treated from experimental day 10 (n=10), N^tr2-minocycline-treated from experimental day 13 (n=5), N^tr3 minocycline-treated from experimental day 13, with twice daily injections during the first two days followed by single injection throughout the remaining treatment period (n=5).

[4] = tested on: DA rats with MOG-induced EAE; experiment: High-dose MOG (100 μg rMOG/IFA) immunization paradigm of EAE; type: in vivo, rat
Protocol: Statistical analysis of clinical scores was performed by averaging them over all times of the treatment and subtracting the first 11 days after immunization when clinical score in all groups was 0. Statistical significance was established using a repeated measures analysis where clinical score between treatments was compared from day 12 to 42 building in an auto-correlation of the error term. ANOVA and Student's t-test were used to establish the difference between experimental groups in all other examined parameters. […]

[5] = tested on: DA rats with MOG-induced EAE; experiment: Low-dose MOG (10 μg rMOG/CFA) immunization paradigm of relapsing remitting EAE; type: in vivo, rat; settings: for % Of Dorsal Column Demyelinated / % Of Mortality / Mean Cumulative Score / % Of Incidence: 10 μg rMOG/CFA
Protocol: Experiments were performed on 6-8 week old female DA rats obtained from Harlan-Sprague Dawley, Indianapolis, Ind. or Harlan-Winkelmann, Germany. During the observation period, rats were housed in a light- and temperature-controlled environment and were permitted free access to food and water. The recombinant extracellular immunogobulin domain of MOG was expressed in E. coli and purified as described previously (Raine, C. S., et al., Ann. Neurol. 46:144-160, 1999).
Rats were immunized sub-cutaneously (s.c.) at the base of the tail with either 10 μg MOG in complete Freund's adjuvant (CFA) or 100 μg MOG emulsified in incomplete Freund's adjuvant (IFA) (Difco, Detroit, Mich.) in a total volume of 100 μl. Animals were weighed and examined daily for clinical signs of EAE that was scored on the following scale: 0.5, partial loss of tail tone; 1, complete tail atony; 2, hind limb weakness; 3, hind limb paralysis; 4, moribund; 5, dead. […]
as §1
Animals were deeply anesthetized with pentobarbital and perfused transcardially with Ringer's followed by 4% paraformaldehyde. The brain and spinal cord were removed and prepared for paraffin and epon embedding or cryo-protected in 30% sucrose. Paraffin sections were used to assess the degree of inflammation (hematoxylin and eosin) and one-micron semithin sections were used to estimate the demyelination in the spinal cord (toluidine blue). Areas with inflammatory infiltrates or demyelinating lesions in the dorsal funiculus of spinal cord were scored using a CCD72 camera to collect digital images that were analyzed with the Microcomputer Imaging Device (MCID) software from Imaging Research Inc. (St. Catherines, Ontario). Measurements for cell infiltrates and demyelination were expressed as percent of the total white matter area of the dorsal funiculus. To determine the profile of inflammatory infiltrates within lesions 10 μm cryostat sections of thoracic-lumbar spinal cord were immunolabelled for MHC II (Harlan Sera-Lab), CR3, CD45 (Serotec), GFAP (Dako), CD3 (PharMingen) and MMP-2 (Oncogne Research Products) protein expression. Primary antibodies were detected using a biotinylated secondary antibodies and the avidin: biotin enzyme complex technique (Vector Laboratories). Areas with immunolabelling-defined inflammatory infiltrates were scored using a semi-quantitative scale: 0-no inflammatory infiltrates or lesions, 1-25%, 2-50%, 3-75%, and 4-100% of the dorsal funiculus.
Statistical analysis of clinical scores was performed by averaging them over all times of the treatment and subtracting the first 11 days after immunization when clinical score in all groups was 0. Statistical significance was established using a repeated measures analysis where clinical score between treatments was compared from day 12 to 42 building in an auto-correlation of the error term. ANOVA and Student's t-test were used to establish the difference between experimental groups in all other examined parameters. Statistically significant differences were presented as: * for P<0.05, ** for P<0.01, and *** for P<0.001.

[6] = minocycline from day 10 (EAEtr1)
[7] = minocycline from day of onset (EAEtr2)
[8] = minocycline from day of onset, double-dose (EAEtr3)

Row | Compound | anti-collagenase activity [1] | antigen specific proliferative response of draining lymph node cells [2] | adverse effects [3] | % Of Incidence ([4]; minocycline 45 mg/kg i.p. daily from day 1, terminated day 20) [%] | % Of Dorsal Column Demyelinated ([4]; minocycline from day 1) [%] | Mean Cumulative Score ([4]; minocycline from day 1, sum of daily scores of all animals / number of animals) | % Of Mortality ([4]; minocycline from day 1, terminated day 20) [%] | % Of Dorsal Column Demyelinated [5, 6] [%] | % Of Mortality [5, 6] [%] | Mean Cumulative Score [5, 6] | % Of Incidence ([5]; minocycline from day 10 (EAEtr1), 42 days) [%] | % Of Dorsal Column Demyelinated [5, 7] [%] | % Of Incidence [5, 7] [%] | % Of Mortality [5, 7] [%] | Mean Cumulative Score [5, 7] | % Of Dorsal Column Demyelinated [5, 8] [%] | % Of Mortality [5, 8] [%] | Mean Cumulative Score [5, 8] | % Of Incidence ([5]; minocycline from day of onset, double-dose first two days (EAEtr3)) [%] | maximal clinical disease grade reached ([5]; twice daily for first two days from onset, then once daily (EAEtr3))
1 | NC(=O)C1=C(O)C[C@@H]2C[C@@H]3Cc4cccc(O)c4C(=O)C3=C(O)[C@]2(O)C1=O [CMT-3, 6-demethyl 6-deoxy 4-dedimethylamino tetracycline] | persistent anti-collagenase activity | – | – | – | – | – | – | – | – | – | – | – | – | – | – | – | – | – | – | –
2 | CC1(O)c2cccc(O)c2C(=O)C2=C(O)C3(O)C(=O)C(C(N)=O)=C(O)CC3CC21 (stereo not drawn) [CMT-1, 4-dedimethylamino tetracycline] | persistent anti-collagenase activity | – | – | – | – | – | – | – | – | – | – | – | – | – | – | – | – | – | – | –
3 | CN(C)c1ccc(O)c2c1C[C@H]1C[C@H]3[C@H](N(C)C)C(O)=C(C(N)=O)C(=O)[C@@]3(O)C(O)=C1C2=O [Minocycline, Minocycline hydrochloride] | – | no significant effect | not found to induce any adverse effects | 80 | 6.25 | 5.5 | 0 | 5.94 | 0 | 7.43 | 40 | 0.12 | 100 | 0 | 26.25 | 0.04 | 0 | 10.12 | 100 | ≤ 1
